Test results published in patent US5643870A, “O-acylated cyclosporins” (Sandoz Ltd., priority 1992, dated 1997).
≈ marks a conversion by molar mass, not a printed value.

What was measured:
[1] = test system: plaque forming, i.e. antibody producing, cells (lymphocytes from the spleen of OFI mice co-cultured with sheep erythrocytes); format: cell-based; settings: 3 days co-culture with sheep erythrocytes
Description: Ca. 10^7 lymphocytes from the spleen of OFI, female mice are co-cultured with ca. 3×10^7 sheep erythrocytes for 3 days. Test substance is added to the incubation medium in varying concentrations. Lymphocytes are harvested and plated onto agar with fresh sheep erythrocytes as antigen. Sensitised lymphocytes secrete antibody that coats the erythrocytes, which lyse to form a plaque in the presence of complement. Activity is assessed by reduction in the number of plaque forming, i.e. antibody producing, cells. Cyclosporins in accordance with the present invention reduce the numbers of plaque forming cells at concentrations of the order of from 0.03 to 0.05 μg/ml.

[2] = test system: lymphocytes from the spleen of Balb/c mice incubated with lymphocytes from the spleen of CBA mice
Description: 0.5×10^6 lymphocytes from the spleen of female (8-10 weeks) Balb/c mice are incubated for 5 days in 0.2 ml cell growth medium with ca. 0.5×10^6 lymphocytes from the spleen of female (8-10 weeks) CBA mice. Test substance is added to the medium at various concentrations. Activity is assessed by ability to suppress proliferation associated DNA synthesis as determined by incorporation of radiolabelled thymidine.

CC[C@@H]1NC(=O)[C@H]([C@H](O)[C@H](C)C/C=C/COC(=O)OC)N(C)C(=O)[C@H](C(C)C)N(C)C(=O)[C@H](CC(C)C)N(C)C(=O)[C@H](CC(C)C)N(C)C(=O)[C@@H](C)NC(=O)[C@H](C)NC(=O)[C@H](CC(C)C)N(C)C(=O)[C@H](C(C)C)NC(=O)[C@H](CC(C)C)N(C)C(=O)CN(C)C1=O [Example 1, [(8'-Methoxycarbonyloxy)MeBmt]^1 -Ciclosporin]
IC50, test 1.2 Mishell-Dutton test (number of plaque forming cells) [1]: 0.043 µg/mL | IC50, test 1.1 murine mixed lymphocyte reaction (thymidine incorporation) [2]: 0.015 µg/mL (≈ 0.0117 µM)
